Columns and labels:
[1] = biological target: TR beta-LBD (thyroid hormone receptor beta) (Homo sapiens (Human), UniProt P10828); assay: LanthaScreen TR-FRET Thyroid Receptor beta Coactivator Assay (agonist screening); format: biochemical; details: for THRβ-Selectivity: THR beta over THR alpha, derived from T3-selectivity normalized data; for EC50: TR-FRET coactivator assay, TR beta-LBD 1.0 nM, 2 hour incubation, average of duplicate runs, read-out: EC50 THRβ-FRET
Description: (§1) Example B1: Time-Resolved Fluorescence Resonance Energy Transfer (TR-FRET) Assay for Thyroid Hormone Receptor Agonist Screening
(§2) LanthaScreen™ TR-FRET Thyroid Receptor alpha Coactivator Assay kit (ThermoFisher) and LanthaScreen™ TR-FRET Thyroid Receptor beta Coactivator Assay kit (ThermoFisher) were used for agonist compound screening. Compounds in DMSO were diluted using ECHO Liquid Handler (Labcyte Inc.) into 384 plates in 10-point 3-fold series in duplicate (5 micro M final top concentration). Buffer C (ThermoFisher) was added to each well before the 4× mixture of fluorescein-SCR2-2 coactivator (200 nM final concentration), Terbium-labeled anti-GST antibody (2 nM final concentration), and TR alpha-LBD (0.4 nM final concentration) or TR beta-LBD (1.0 nM final concentration) was added. After 2 hour incubation at room temperature in dark, the TR-FRET signal was measured on an EnVision plate reader (PerkinElmer) with excitation at 340 nm and dual emission readout at 495 and 520 nm with the delay time of 100 micro second and the integration time of 200 micro second. The ratio of emission signal at 520 and at 495 was used to calculate EC50 using GraphPad Prism (GraphPad Software). In every batch of compound screening, T3 (L-3,3′,5-Triiodothyronine sodium salt, >95%) (Calbiochem) was used as reference compound. The EC50 of T3 measured were within 3-fold of the reference value provided by the assay kit manufacturer (ThermoFisher Scientific). The Z′ factors measured in every batch of screening using T3 as high percent effect (HPE) control and 0.5% DMSO as zero percent effect (ZPE) control were in the range of 0.5 to 0.8. Compounds' THR-beta selectivity values are derived from T3-selectivity normalized data.

[2] = biological target: TR alpha-LBD (thyroid hormone receptor alpha) (Homo sapiens (Human), UniProt P10827); assay: LanthaScreen TR-FRET Thyroid Receptor alpha Coactivator Assay (agonist screening); format: biochemical; details: TR alpha-LBD 0.4 nM, 2 hour incubation, average of duplicate runs, read-out: EC50 THRα-FRET
Sequence of TR alpha-LBD (thyroid hormone receptor alpha) (P10827 other isoform, or with tags, fused parts or gaps del 1-162, other chains not shown): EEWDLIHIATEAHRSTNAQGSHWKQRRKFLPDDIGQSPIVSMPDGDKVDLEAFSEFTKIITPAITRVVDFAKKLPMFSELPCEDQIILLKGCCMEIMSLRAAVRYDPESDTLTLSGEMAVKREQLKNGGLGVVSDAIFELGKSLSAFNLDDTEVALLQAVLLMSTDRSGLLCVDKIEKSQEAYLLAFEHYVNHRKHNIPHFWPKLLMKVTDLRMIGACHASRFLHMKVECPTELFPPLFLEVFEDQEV
Description: as §1, §2

Sequence of TR beta-LBD (thyroid hormone receptor beta) (P10828 217-461): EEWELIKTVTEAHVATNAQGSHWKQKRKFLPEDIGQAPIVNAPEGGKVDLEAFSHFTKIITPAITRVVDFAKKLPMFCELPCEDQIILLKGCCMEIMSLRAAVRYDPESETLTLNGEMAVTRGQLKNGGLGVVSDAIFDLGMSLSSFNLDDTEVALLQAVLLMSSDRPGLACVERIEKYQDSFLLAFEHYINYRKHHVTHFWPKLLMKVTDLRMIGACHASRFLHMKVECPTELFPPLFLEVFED

With `CC(C)c1cc(Oc2c(Cl)cc(NC(C)c3noc(=O)[nH]3)cc2Cl)nn(C)c1=O` (single isomer, unassigned) [Example 3-P1, 3-(1-((3,5-dichloro-4-((5-isopropyl-1-methyl-6-oxo-1,6-dihydropyridazin-3-yl)oxy)phenyl)amino)ethyl)-1,2,4-oxadiazol-5(4H)-one] the THRβ-Selectivity [1] was 1.0, the EC50 [1] was 277 nM and the EC50 [2] was 75.9 nM.

`CC(C)c1cc(Oc2c(Cl)cc(NC(C)c3noc(=O)[nH]3)cc2Cl)nn(C)c1=O` (single isomer, unassigned) [Example 3-P2, 3-(1-((3,5-dichloro-4-((5-isopropyl-1-methyl-6-oxo-1,6-dihydropyridazin-3-yl)oxy)phenyl)amino)ethyl)-1,2,4-oxadiazol-5(4H)-one] showed a THRβ-Selectivity [1] of 4.2, an EC50 [1] of 732 nM and an EC50 [2] of 817 nM.

In the case of `CC(C)c1cc(Oc2c(Cl)cc(NCc3noc(=O)[nH]3)cc2Cl)nn(C)c1=O` [Example 1, 3-(((3,5-dichloro-4-((5-isopropyl-1-methyl-6-oxo-1,6-dihydropyridazin-3-yl)oxy)phenyl)amino)methyl)-1,2,4-oxadiazol-5(4H)-one], the THRβ-Selectivity [1] is reported as 17.2, the EC50 [1] is reported as 7.6 nM and the EC50 [2] is reported as 49.5 nM.

With `CC(C)c1cc(Oc2c(Cl)cc(N(C)Cc3noc(=O)[nH]3)cc2Cl)nn(C)c1=O` [Example 2, 3-(((3,5-dichloro-4-((5-isopropyl-1-methyl-6-oxo-1,6-dihydropyridazin-3-yl)oxy)phenyl)(methyl)amino)methyl)-1,2,4-oxadiazol-5(4H)-one] the EC50 [1] was > 5000 nM and the EC50 [2] was > 5000 nM.

`CC(C)c1cc(Oc2c(Cl)cc(NC(=O)c3noc(=O)[nH]3)cc2Cl)nn(C)c1=O` [Example 4, N-(3,5-dichloro-4-((5-isopropyl-1-methyl-6-oxo-1,6-dihydropyridazin-3-yl)oxy)phenyl)-5-oxo-4,5-dihydro-1,2,4-oxadiazole-3-carboxamide] gave a THRβ-Selectivity [1] of 31.7, an EC50 [1] of 27.1 nM and an EC50 [2] of 314 nM.

`CC(C)c1cc(Oc2c(Cl)cc(NCc3noc(=O)[nH]3)cc2Cl)n[nH]c1=O` [Example 5, 3-(((3,5-dichloro-4-((5-isopropyl-6-oxo-1,6-dihydropyridazin-3-yl)oxy)phenyl)amino)methyl)-1,2,4-oxadiazol-5(4H)-one] showed a THRβ-Selectivity [1] of 27.8, an EC50 [1] of 74.2 nM and an EC50 [2] of 469 nM.

Work on `CC(C)c1cc(Oc2c(Cl)cc(OCc3noc(=O)[nH]3)cc2Cl)nn(C)c1=O` [Example 6, 3-((3,5-dichloro-4-((5-isopropyl-1-methyl-6-oxo-1,6-dihydropyridazin-3-yl)oxy)phenoxy)methyl)-1,2,4-oxadiazol-5(4H)-one] yielded a THRβ-Selectivity [1] of 3.6, an EC50 [1] of 58.1 nM and an EC50 [2] of 78 nM.

Work on `CC(C)c1cc(Oc2c(Cl)cc(-c3cc(=O)[nH]o3)cc2Cl)nn(C)c1=O` [Example 7, 5-(3,5-dichloro-4-((5-isopropyl-1-methyl-6-oxo-1,6-dihydropyridazin-3-yl)oxy)phenyl)isoxazol-3(2H)-one] yielded a THRβ-Selectivity [1] of 13.1, an EC50 [1] of 60.9 nM and an EC50 [2] of 473 nM.

For `CC(C)c1cc(Oc2c(Cl)cc(-c3cc(=O)[nH]o3)cc2Cl)n[nH]c1=O` [Example 8, 5-(3,5-dichloro-4-((5-isopropyl-6-oxo-1,6-dihydropyridazin-3-yl)oxy)phenyl)isoxazol-3(2H)-one], the THRβ-Selectivity [1] was 7, the EC50 [1] was 896 nM and the EC50 [2] was 2300 nM.

For `CC(C)c1cc(Oc2c(Cl)cc(-c3noc(=O)[nH]3)cc2Cl)n[nH]c1=O` [Example 9, 3-[3,5-dichloro-4-[(5-isopropyl-6-oxo-1H-pyridazin-3-yl)oxy]phenyl]-4H-1,2,4-oxadiazol-5-one], the THRβ-Selectivity [1] was 0.7, the EC50 [1] was 290 nM and the EC50 [2] was 126 nM.

Work on `Cc1c(NC(=O)c2noc(=O)[nH]2)cc(Cl)c(Oc2cc(C(C)C)c(=O)n(C)n2)c1Cl` [Example 11, N-(3,5-dichloro-4-((5-isopropyl-1-methyl-6-oxo-1,6-dihydropyridazin-3-yl)oxy)-2-methylphenyl)-5-oxo-4,5-dihydro-1,2,4-oxadiazole-3-carboxamide] yielded a THRβ-Selectivity [1] of 4.8, an EC50 [1] of 116 nM and an EC50 [2] of 192 nM.

In the case of `Cc1c(NCc2noc(=O)[nH]2)cc(Cl)c(Oc2cc(C(C)C)c(=O)n(C)n2)c1Cl` [Example 12, 3-(((3,5-dichloro-4-((5-isopropyl-1-methyl-6-oxo-1,6-dihydropyridazin-3-yl)oxy)-2-methylphenyl)amino)methyl)-1,2,4-oxadiazol-5(4H)-one], the THRβ-Selectivity [1] is reported as 6.2, the EC50 [1] is reported as 71.2 nM and the EC50 [2] is reported as 152 nM.

In the case of `CC(C)c1cc(Cc2c(Cl)cc(NC(=O)c3noc(=O)[nH]3)cc2Cl)n[nH]c1=O` [Example 13, N-(3,5-dichloro-4-((5-isopropyl-6-oxo-1,6-dihydropyridazin-3-yl)methyl)phenyl)-5-oxo-4,5-dihydro-1,2,4-oxadiazole-3-carboxamide], the THRβ-Selectivity [1] is reported as 86.5, the EC50 [1] is reported as 53.6 nM and the EC50 [2] is reported as 1630 nM.

Work on `CC(C)c1cc(Cc2c(Cl)cc(NC(=O)c3noc(=O)[nH]3)cc2Cl)nn(C)c1=O` [Example 14, N-(3,5-dichloro-4-((5-isopropyl-1-methyl-6-oxo-1,6-dihydropyridazin-3-yl)methyl)phenyl)-5-oxo-4,5-dihydro-1,2,4-oxadiazole-3-carboxamide] yielded a THRβ-Selectivity [1] of 48, an EC50 [1] of 46.6 nM and an EC50 [2] of 549 nM.

Work on `CC(C)c1cc(Cc2c(Cl)cc(NCc3noc(=O)[nH]3)cc2Cl)n[nH]c1=O` [Example 15, 3-(((3,5-dichloro-4-((5-isopropyl-6-oxo-1,6-dihydropyridazin-3-yl)methyl)phenyl)amino)methyl)-1,2,4-oxadiazol-5(4H)-one] yielded a THRβ-Selectivity [1] of 11.7, an EC50 [1] of 31.5 nM and an EC50 [2] of 102 nM.

`CC(C)c1cc(Cc2c(Cl)cc(NCc3noc(=O)[nH]3)cc2Cl)nn(C)c1=O` [Example 16, 3-(((3,5-dichloro-4-((5-isopropyl-1-methyl-6-oxo-1,6-dihydropyridazin-3-yl)methyl)phenyl)amino)methyl)-1,2,4-oxadiazol-5(4H)-one] gave a THRβ-Selectivity [1] of 6.7, an EC50 [1] of 44.2 nM and an EC50 [2] of 82.4 nM.

`CC(C)c1cc(C(=O)c2c(Cl)cc(NC(=O)c3noc(=O)[nH]3)cc2Cl)nn(C)c1=O` [Example 17, N-(3,5-dichloro-4-(5-isopropyl-1-methyl-6-oxo-1,6-dihydropyridazine-3-carbonyl)phenyl)-5-oxo-4,5-dihydro-1,2,4-oxadiazole-3-carboxamide] was tested, and the THRβ-Selectivity [1] was >7.2, the EC50 [1] was 2110 nM and the EC50 [2] was > 5000 nM.

For `CC(C)c1cc(C(=O)c2c(Cl)cc(NCc3noc(=O)[nH]3)cc2Cl)nn(C)c1=O` [Example 18, 3-(((3,5-dichloro-4-(5-isopropyl-1-methyl-6-oxo-1,6-dihydropyridazine-3-carbonyl)phenyl)amino)methyl)-1,2,4-oxadiazol-5(4H)-one], the THRβ-Selectivity [1] was 6.1, the EC50 [1] was 271 nM and the EC50 [2] was 550 nM.

`CC(C)c1cc(S(=O)(=O)c2c(Cl)cc(NCc3noc(=O)[nH]3)cc2Cl)nn(C)c1=O` [Example 19, 3-(((3,5-dichloro-4-((5-isopropyl-1-methyl-6-oxo-1,6-dihydropyridazin-3-yl)sulfonyl)phenyl)amino)methyl)-1,2,4-oxadiazol-5(4H)-one] was tested, and the EC50 [1] was > 5000 nM and the EC50 [2] was 1930 nM.

In the case of `CC(C)c1cc(S(=O)(=O)c2c(Cl)cc(NC(=O)c3noc(=O)[nH]3)cc2Cl)nn(C)c1=O` [Example 20, N-(3,5-dichloro-4-((5-isopropyl-1-methyl-6-oxo-1,6-dihydropyridazin-3-yl)sulfonyl)phenyl)-5-oxo-4,5-dihydro-1,2,4-oxadiazole-3-carboxamide], the EC50 [1] is reported as > 5000 nM and the EC50 [2] is reported as > 5000 nM.

`O=C(Nc1cc(Cl)c(Cc2cc(C3CC3)c(=O)[nH]n2)c(Cl)c1)c1noc(=O)[nH]1` [Example 21, N-(3,5-dichloro-4-((5-cyclopropyl-6-oxo-1,6-dihydropyridazin-3-yl)methyl)phenyl)-5-oxo-4,5-dihydro-1,2,4-oxadiazole-3-carboxamide] was tested, and the THRβ-Selectivity [1] was >113, the EC50 [1] was 180 nM and the EC50 [2] was > 5000 nM.

With `Cn1nc(Cc2c(Cl)cc(NC(=O)c3noc(=O)[nH]3)cc2Cl)cc(C2CC2)c1=O` [Example 22, N-(3,5-dichloro-4-((5-cyclopropyl-1-methyl-6-oxo-1,6-dihydropyridazin-3-yl)methyl)phenyl)-5-oxo-4,5-dihydro-1,2,4-oxadiazole-3-carboxamide] the THRβ-Selectivity [1] was 19.5, the EC50 [1] was 181 nM and the EC50 [2] was 898 nM.

`CC(C)c1cc(Oc2c(Cl)cc(NC(=O)c3noc(=O)[nH]3)cc2Cl)n[nH]c1=O` [Example 23, N-(3,5-dichloro-4-((5-isopropyl-6-oxo-1,6-dihydropyridazin-3-yl)oxy)phenyl)-5-oxo-4,5-dihydro-1,2,4-oxadiazole-3-carboxamide] gave a THRβ-Selectivity [1] of 67.3, an EC50 [1] of 87.3 nM and an EC50 [2] of 1320 nM.
